Laboratory results from patent publication US20040006236A1, “Diaminopropionic acid derivatives” (priority 1999, published 2004).
Where two headings read alike, the source gives them in different places.

Columns and labels:
[1] = biological target: T1, LFA-1 binding to immobilized ICAM-1 (Homo sapiens, UniProt P05107+P20701); assay: LFA-1/ICAM-1 protein-protein assay (solid-phase ELISA); settings: read-out: LFA-1/ICAM-1 Protein-Protein Assay IC50
T1 construct: made in house; host or cells: transfected 293 cells (LFA-1)
T1 sequence (P20701 26-1170): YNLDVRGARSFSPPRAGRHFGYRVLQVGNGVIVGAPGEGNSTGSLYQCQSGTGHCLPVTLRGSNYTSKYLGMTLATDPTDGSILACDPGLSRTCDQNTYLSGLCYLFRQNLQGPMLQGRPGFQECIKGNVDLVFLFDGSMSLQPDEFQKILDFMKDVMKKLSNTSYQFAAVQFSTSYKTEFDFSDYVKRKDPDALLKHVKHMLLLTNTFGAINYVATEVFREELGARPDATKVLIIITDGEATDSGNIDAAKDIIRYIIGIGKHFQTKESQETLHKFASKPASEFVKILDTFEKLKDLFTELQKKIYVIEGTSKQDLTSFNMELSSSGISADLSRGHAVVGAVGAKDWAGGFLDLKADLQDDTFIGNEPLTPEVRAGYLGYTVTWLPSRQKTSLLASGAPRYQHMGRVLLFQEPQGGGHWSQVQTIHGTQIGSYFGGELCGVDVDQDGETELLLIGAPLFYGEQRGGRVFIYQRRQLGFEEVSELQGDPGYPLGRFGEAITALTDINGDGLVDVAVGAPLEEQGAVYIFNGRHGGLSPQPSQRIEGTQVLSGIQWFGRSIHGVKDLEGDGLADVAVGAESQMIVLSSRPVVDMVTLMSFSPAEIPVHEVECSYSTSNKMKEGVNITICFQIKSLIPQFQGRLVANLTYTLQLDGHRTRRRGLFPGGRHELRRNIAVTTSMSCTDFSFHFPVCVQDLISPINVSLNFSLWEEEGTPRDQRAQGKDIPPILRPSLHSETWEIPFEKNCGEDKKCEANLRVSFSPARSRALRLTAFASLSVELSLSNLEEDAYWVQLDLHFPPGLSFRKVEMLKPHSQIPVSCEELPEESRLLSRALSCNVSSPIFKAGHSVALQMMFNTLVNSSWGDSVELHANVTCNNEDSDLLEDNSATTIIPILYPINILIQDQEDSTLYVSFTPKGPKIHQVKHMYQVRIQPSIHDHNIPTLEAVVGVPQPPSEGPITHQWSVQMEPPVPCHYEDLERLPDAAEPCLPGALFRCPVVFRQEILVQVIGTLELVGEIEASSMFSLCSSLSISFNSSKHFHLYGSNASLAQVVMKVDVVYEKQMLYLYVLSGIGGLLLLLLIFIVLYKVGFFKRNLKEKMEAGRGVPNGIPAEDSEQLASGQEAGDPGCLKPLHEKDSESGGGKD
T1 sequence (P05107 23-769): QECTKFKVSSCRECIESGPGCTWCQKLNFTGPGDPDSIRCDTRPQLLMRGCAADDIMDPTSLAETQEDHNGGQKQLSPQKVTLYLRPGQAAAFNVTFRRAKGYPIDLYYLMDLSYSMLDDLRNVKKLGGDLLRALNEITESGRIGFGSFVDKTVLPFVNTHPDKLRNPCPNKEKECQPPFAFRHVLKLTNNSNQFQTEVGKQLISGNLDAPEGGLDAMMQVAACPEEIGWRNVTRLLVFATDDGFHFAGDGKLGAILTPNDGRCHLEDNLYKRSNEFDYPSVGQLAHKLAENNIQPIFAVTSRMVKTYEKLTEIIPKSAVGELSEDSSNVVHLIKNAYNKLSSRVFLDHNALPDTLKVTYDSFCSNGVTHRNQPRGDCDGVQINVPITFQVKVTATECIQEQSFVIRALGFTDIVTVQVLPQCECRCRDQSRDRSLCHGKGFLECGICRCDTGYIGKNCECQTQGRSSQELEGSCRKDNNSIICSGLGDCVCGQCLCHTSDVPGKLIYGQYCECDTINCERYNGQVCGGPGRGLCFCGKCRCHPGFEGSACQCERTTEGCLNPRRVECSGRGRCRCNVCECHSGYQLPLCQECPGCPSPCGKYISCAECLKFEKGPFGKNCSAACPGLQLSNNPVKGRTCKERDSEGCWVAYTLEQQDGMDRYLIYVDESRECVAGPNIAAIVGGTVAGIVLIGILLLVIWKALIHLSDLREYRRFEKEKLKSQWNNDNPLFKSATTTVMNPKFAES
Outline: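 Human 5dICAM-Ig (ICAM-1 extracellular domain–IgG Fc) coated on plates; membrane-bound LFA-1 from transfected 293 cells (280 ng/mL) added with compound in Mn2+-containing HEPES buffer pH 7.2, 2 h at 37° C. Bound LFA-1 detected via anti-β2 antibody and HRP/TMB at 450 nm; IC50s determined.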

[2] = test system: T lymphocyte proliferation (C57BI/6 spleen cells with irradiated BALB/c spleen cells); assay: Mixed lymphocyte reaction (MLR), one-way; type: cell-based, mice; settings: read-out: MLR IC50
Text: Admixture of murine spleen cells from two different inbred strains of mice induces proliferation of T lymphocytes. The magnitude of T cell proliferation depends on the extent of disparity in the major histocompatibility antigens between the two strains. Splenic T lymphocytes from both strains proliferate due to alloantigen recognition, a process for which the interaction of ICAM-1 on antigen-presenting cells with LFA-1 on lymphocytes is necessary. The ability of antagonists to inhibit T lymphocyte proliferation following recognition of alloantigens was assessed in a one-way MLR, where cells from one strain were irradiated to permit measurement of the proliferative response of cells from the other strain. Spleen cells were washed three times in tissue culture medium (TCM; see below). […] One hundred microliters of serial dilutions of antagonists or TCM were added to the spleen cell mixture. The total volume in each well was 200 μL. TCM was RPMI1640 containing 10% heat-inactivated fetal bovine serum, […] L-glutamine, 100 Units/ml each of penicillin and streptomycin and 5×10^−5 M 2-mercaptoethanol. Dilutions of antagonists were prepared in TCM. Plates were incubated in 5% CO2 for 3 days. On the third day, 0.5 μCi of tritiated thymidine (10 μCi/mL) was added to all the wells. Cells were harvested 6 h later on a 96-well plate harvester and the amount of tritiated thymidine incorporated was assessed in a liquid scintillation counter.

[3] = test system: cell-surface Mac-1 adhesion to immobilized fibrinogen (HL-60 cells); assay: Mac-1/Fibrinogen cell-based screening assay; parameters: species or system human; settings: read-out: Mac-1/Fgn Cell based Assay IC50
Procedure: Cellular Mac-1/Fibrinogen antagonist activity, defined as the ability to inhibit cell-surface Mac-1 adhesion to immobilized fibrinogen, was quantitated by a cell based assay. Human fibrinogen was coated onto 96 well microtiter plates (1 μg in 100 μL TBS) overnight at 4° C. The plates were then blocked with 150 μL of 10% polyvinyl pyrrolidone (PVP) in TBS for 1 h at 37° C. Plates were washed 3 times (150 μL each) with TBS. […] A ten-fold excess of volume of the same buffer was added and cells were centrifuged. The medium was decanted and cells were resuspended at a concentration of 2×10^6 cells/mL in RPMI/0.05% BSA/0.2 mM MnCl2. Stock solutions (10 mM in DMSO) of test compounds were diluted to 2.5 mM with DMSO. […] Each sample was further diluted 50-fold with RPMI/0.05% BSA/0.2 mM MnCl2. Equal volumes of labeled cells were then added to assay tubes containing diluted compounds. […] Cells were incubated for 10 min at 37° C. with gentle shaking, then dispensed (100 μL per well) onto fibrinogen coated plates and incubated for 30 min at 37° C./5% CO2. Unbound cells were gently washed with TBS two times.

[4] = Homo sapiens, HL-60, HL-60 cells

| SMILES | IC50 [1] [nM] | IC50 ([2]; Mus musculus, T-lymphocyte) [nM] | IC50 [3, 4] [nM] | IC50 ([3]; HL-60 cells) [nM] | IC50 [2] [nM] |
| --- | --- | --- | --- | --- | --- |
| O=C(NCc1cccc(O)c1)c1ccc(C(=O)N[C@@H](CNC(=O)[C@@H]2Cc3c([nH]c4ccccc34)CN2)C(=O)O)c(Cl)c1 [Example 296] | 3.4 | 4600 | 167 | – | – |
| N[C@H]1Cc2ccccc2CN(CC(=O)NC[C@H](NC(=O)c2ccc(C(=O)NCc3cccc(O)c3)cc2Cl)C(=O)O)C1=O [Example 295] | 1.9 | 1620 | 89 | – | – |
| Cc1ccsc1C(=O)NC[C@H](NC(=O)c1c(Cl)cc(C(=O)NCc2cccc(O)c2)cc1Cl)C(=O)O [Example 357] | 0.5 | 21 | 23 | – | – |
| CC(C)C[C@H](N)C(=O)NC[C@H](NC(=O)c1ccc(C(=O)NCc2cccc(O)c2)cc1Cl)C(=O)O [Example 277] | 4.3 | 8700 | 282 | – | – |
| C[C@H](N)C(=O)NC[C@H](NC(=O)c1ccc(C(=O)NCc2cccc(O)c2)cc1Cl)C(=O)O [Example 280] | 3.1 | 4200 | – | 77 | – |
| O=C(NCc1cccc(O)c1)c1cc(Cl)c(C(=O)N[C@@H](CNC(=O)c2cccc(Cl)c2)C(=O)O)c(Cl)c1 [Example 348, 3-[(3-chlorobenzoyl)amino]-N-[2,6-dichloro-4-[[[(3-hydroxyphenyl)methyl]amino]carbonyl]benzoyl]-L-alanine] | 1.3 | 173 | 19.8 | – | – |
| N[C@@H](Cc1ccc(OCc2c(Cl)cccc2Cl)cc1)C(=O)NC[C@H](NC(=O)c1ccc(C(=O)NCc2cccc(O)c2)cc1Cl)C(=O)O [Example 273] | 7.4 | 12000 | 1740 | – | – |
| C[C@H](N)C(=O)NC[C@H](NC(=O)c1ccc(C(=O)NCc2cccc(O)c2)cc1Cl)C(=O)O [Example 281] | – | – | – | 291 | 4450 |
| N[C@@H](COCc1ccccc1)C(=O)NC[C@H](NC(=O)c1ccc(C(=O)NCc2cccc(O)c2)cc1Cl)C(=O)O [Example 293] | 6.3 | 13500 | 290 | – | – |
| Cc1cccc(C(=O)NC[C@H](NC(=O)c2c(Cl)cc(C(=O)NCc3cccc(O)c3)cc2Cl)C(=O)O)c1 [Example 352] | 1.2 | 91 | 28 | – | – |
| O=C(NCc1cccc(O)c1)c1ccc(C(=O)N[C@@H](CNC(=O)[C@@H]2C[C@@H](O)CN2)C(=O)O)c(Cl)c1 [Example 268] | 1.7 | 900 | 148 | – | – |
| Cc1cc(C(=O)N[C@H](C)c2cccc3ccccc23)ccc1C(=O)N[C@@H](CNC(=O)c1ccccc1)C(=O)O [Example 326] | 4.1 | 1500 | 93 | – | – |
| CN[C@@H](C)C(=O)NC[C@H](NC(=O)c1ccc(C(=O)NCc2cccc(O)c2)cc1Cl)C(=O)O [Example 279] | 8 | 2200 | 371 | – | – |
| CNCC(=O)NC[C@H](NC(=O)c1ccc(C(=O)NCc2cccc(O)c2)cc1Cl)C(=O)O [Example 283] | 3.1 | 1500 | 166 | – | – |
| O=C(NCc1cccc(O)c1)c1ccc(C(=O)N[C@@H](CNC(=O)c2cc(Br)cc(Br)c2)C(=O)O)c(Cl)c1 [Example 228, N-[2-chloro-4-[[[(3-hydroxyphenyl)methyl]amino]carbonyl]benzoyl]-3-(3,5-dibromobenzoyl)amino-L-alanine] | 7.1 | 5000 | 149 | – | – |
| CCCC[C@H](N)C(=O)NC[C@H](NC(=O)c1ccc(C(=O)NCc2cccc(O)c2)cc1Cl)C(=O)O [Example 278] | 8.5 | 13500 | 311 | – | – |

| SMILES | IC50 [1] [nM] | IC50 ([2]; Mus musculus, T-lymphocyte) [nM] | IC50 [3, 4] [nM] | IC50 ([3]; HL-60 cells) [nM] | IC50 [2] [nM] |
| --- | --- | --- | --- | --- | --- |
| NC1(C(=O)NC[C@H](NC(=O)c2ccc(C(=O)NCc3cccc(O)c3)cc2Cl)C(=O)O)CCCCC1 [Example 284] | 5.7 | 1130 | 198 | – | – |
| N[C@H](Cc1c[nH]c2ccccc12)C(=O)NC[C@H](NC(=O)c1ccc(C(=O)NCc2cccc(O)c2)cc1Cl)C(=O)O [Example 276] | 6.9 | 7250 | 235 | – | – |
| O=C(NCc1cccc(O)c1)c1ccc(C(=O)N[C@@H](CNC(=O)c2cccs2)C(=O)O)c(Br)c1 [Example 328, N-[2-bromo-4-[[[(3-hydroxyphenyl)methyl]amino]carbonyl]benzoyl]-3-(thiophene-2-carbonyl)amino-L-alanine] | 1.3 | 160 | 28 | – | – |
| N[C@H](C(=O)NC[C@H](NC(=O)c1ccc(C(=O)NCc2cccc(O)c2)cc1Cl)C(=O)O)c1ccccc1 [Example 285] | 3.1 | 3100 | 135 | – | – |
| N[C@@H](Cc1ccc([N+](=O)[O-])cc1)C(=O)NC[C@H](NC(=O)c1ccc(C(=O)NCc2cccc(O)c2)cc1Cl)C(=O)O [Example 271] | 3.8 | 4100 | 547 | – | – |
| O=C(NCc1cccc(O)c1)c1cc(Cl)c(C(=O)N[C@@H](CNC(=O)c2cc(Br)c(Br)s2)C(=O)O)c(Cl)c1 [Example 356] | 3.4 | 1760 | 81 | – | – |
| O=C(NCc1cccc(O)c1)c1ccc(C(=O)N[C@@H](CNC(=O)[C@@H]2CSCN2)C(=O)O)c(Cl)c1 [Example 267] | 2.9 | 490 | 71 | – | – |
| Cc1cc(C(=O)NCc2cccc(O)c2)ccc1C(=O)N[C@@H](CNC(=O)c1ccccc1)C(=O)O [Example 324] | 1.5 | 460 | 32 | – | – |
| O=C(NCc1cccc(O)c1)c1ccc(C(=O)N[C@@H](CNC(=O)c2cc(F)cc(C(F)(F)F)c2)C(=O)O)c(Cl)c1 [Example 260] | 5.4 | 1950 | 330 | – | – |
| O=C(NCc1cccc(O)c1)c1ccc(C(=O)N[C@@H](CNC(=O)c2cccs2)C(=O)O)c(F)c1 [Example 331] | 1.1 | 710 | 68 | – | – |
| Cc1cc(C(=O)N[C@H](C)c2cccc3ccccc23)ccc1C(=O)N[C@@H](CNC(=O)c1cccs1)C(=O)O [Example 325] | 2.6 | 965 | 59 | – | – |
| CC(C)(N)C(=O)NC[C@H](NC(=O)c1ccc(C(=O)NCc2cccc(O)c2)cc1Cl)C(=O)O [Example 282] | 4.6 | 1050 | 162 | – | – |
| O=C(NC[C@H](NC(=O)c1ccc(C(O)CCc2cccc(O)c2)cc1Cl)C(=O)O)c1cccs1 (mixture of isomers) [Example 320] | 1 | 145 | 64 | – | – |
| NCCCCCCCCCCC(=O)NC[C@H](NC(=O)c1ccc(C(=O)NCc2cccc(O)c2)cc1Cl)C(=O)O [Example 270] | 7.9 | 4750 | 357 | – | – |
| NC[C@H]1CC[C@H](C(=O)NC[C@H](NC(=O)c2ccc(C(=O)NCc3cccc(O)c3)cc2Cl)C(=O)O)CC1 [Example 286] | 4.1 | 1520 | 74 | – | – |
| O=C(NCc1cccc(O)c1)c1cc(Cl)c(C(=O)N[C@@H](CNC(=O)c2sccc2Cl)C(=O)O)c(Cl)c1 [Example 355] | 0.9 | 86 | 17.7 | – | – |
